# From patent US5942494A, “Stimulation of gene expression and synthesis of heat shock protein 72/73 (HSP 70)” (The Trustees of Columbia University in the City of New York, priority 1996, dated 1999)
# Square brackets hold non-standard residues; d marks the D form. Peptide text beside a SMILES is read from it. Nle = CCCC[C@H](N)C(=O)O
# Tests used:
# Hsp25 = assay: Immunoprecipitation of Hsp25 from radiolabeled HepG2 cells; format: cell-based, human; settings: HepG2, ALLN 4 hours
# Method: (§1) FIGS. 7A-7B: Effects of ALLN on the biosynthesis of other members of Hsp family and related proteins. HepG2 cells were pre-treated and radiolabeled with or without ALLN for 4 hours as described in FIG. 1. Cell lysates were used for SDS-PAGE (A), or for immunoprecipitation with anti-Hsp25, -Hsp27, -Hsp60, -Hsp70, -Hsp86, -Hsp90, -Hsp104, -Bip, or -albumin antibodies respectively (1 μg/ml) (B). Because the anti-Hsp25, -Hsp27, -Hsp60 and Hsp90 antibodies are from a rat source, rabbit anti-rat IgG antibody was added after the first incubation, and the incubation was extended for another 1 hour at 4° C. before collection with protein A-Sepharose.Immunoprecipitates were loaded for SDS-PAGE and aliquoted for scintillation counting and plotting. Each value was presented as mean ±S.D. from three individual culture dishes.
# (§2) HepG2 cells were preincubated for 4 hours in serum-free MEM and then radiolabeled with ^3 H-Leucine (150 μCi/ml) in a serum-free, leucine-free medium. […] Cell lysates containing equal amounts of trichloroacetic acid (TCA)-insoluble radioactivity were used for immunoprecipitations by incubating with individual monoclonal antibody (1 μg/ml) for 2.5 hours at 4° C. […]
# Hsp90 = assay: Immunoprecipitation of Hsp90 from radiolabeled HepG2 cells; format: cell-based, human; settings: HepG2, ALLN 4 hours
# Method: as §1, §2
# calpain = settings: Rock, et al., 1994; cited from earlier work
# Hsp86 = assay: Immunoprecipitation of Hsp86 from radiolabeled HepG2 cells; format: cell-based, human; settings: HepG2, ALLN 4 hours
# Method: as §1, §2
# [1] = test system: 3-hydroxy-3-methylglutaryl-coenzyme A (HMG-CoA) reductase; settings: Inoue, et al., 1991; cited from earlier work
# [2] = test system: human microvascular endothelial cell line; assay: TCA-cpm measurement in human microvascular endothelial cell line; format: cell-based; settings: ALLN 40 μg/ml, 4 hours, 30 min. labeling
# HepG2 cells = assay: Total incorporation of radiolabel (TCA cpm) as indicator of cell toxicity, HepG2; format: cell-based, human; settings: ALLN 10 μg/ml, HepG2
# Method: HepG2 cells were preincubated for 4 hours in serum-free MEM and then radiolabeled with ^3 H-Leucine (150 μCi/ml) in a serum-free, leucine-free medium. Preincubation and labeling media each contained either 1.5% bovine serum albumin (BSA) alone, or BSA plus ALLN (40 μg/ml except as otherwise indicated), or BSA plus other protease inhibitors at concentrations indicated in the figure legends. At the indicated times, cells were removed from the 37° C. incubator and placed on ice, washed with cold phosphate-buffer saline (PBS) twice and lysed with lysis buffer containing 1% Triton X-100 (TX100), 1% deoxycholic acid (DOC) and 0.1% SDS in PBS containing proteinase inhibitors: 2 mM phenylmethylsulfonyl fluoride (PMSF); 2 μg/ml ALLN; 2 μg/ml leupeptin; and 2 μg/ml aprotinin. After a 30 min. incubation with lysis buffer at 4° C., the lysates were centrifuged at 14,000 g in a microcentrifuge for 5 min., and the supernatants were adjusted to 1% SDS concentration and boiled for 5 min. to denature the proteins. 1% TX100 was then added to dilute the lysates to a final concentration of 0.1% SDS. Cell lysates containing equal amounts of trichloroacetic acid (TCA)-insoluble radioactivity were used for immunoprecipitations by incubating with individual monoclonal antibody (1 μg/ml) for 2.5 hours at 4° C. Protein-A Sepharose 4B was added afterwards and the lysates incubated for another 1.5 hours at 4° C. to collect the immunocomplexes. After washing four times with 1×NET buffer (containing 0.5% TX100, 0.1% SDS), the immunocomplexes were mixed with sample buffer and boiled for 5 min. Following centrifugation, the supernatants were aliquoted for scintillation counting and for 3-15% gradient polyacrymide gel electrophoresis (SDS-PAGE) . The gels were later subjected to fluorography. All values are presented as the mean ± S.D. from three individual experiments except as otherwise indicated.
# apoB = settings: Sakata, et al., 1993, unpublished data; cited from earlier work
structure (smiles),measurement,setting,value
"CCCC[C@@H](C=O)NC(=O)[C@H](CC(C)C)NC(=O)[C@H](CC(C)C)NC(C)=O [ALLN, N-acetyl-leucyl-leucyl-norleucinal] (Ac-Leu-Leu-[Nle]-aldehyde)",Effect on Hsp25,Hsp25,no effects
same,Effect on Hsp90,Hsp90,no effects
same,Activity against calpain,calpain,significant activities
same,Effect on Hsp86,Hsp86,no effects
same,Protection of HMG-CoA reductase,[1],protected
same,TCA-cpm measurement,[2],no change
same,"Cell total incorporation of radiolabel (TCA cpm, an indicator of cell toxicity)",HepG2 cells,did not change significantly
same,Protection of apoB,apoB,protected
